In US20240366589A1, “NHE3-BINDING COMPOUNDS AND METHODS FOR INHIBITING PHOSPHATE TRANSPORT” (Ardelyx, Inc., priority 2013, published 2024):

How the values were obtained:
[1] = tested on: intestinal phosphate uptake; experiment: Pharmacodynamic study with 33P oral challenge in normal function rats; format: in vivo, rat; conditions: 10 mg/kg; for Pi uptake after 33P oral challenge: 8 mM Pi with 33P, dihydrochloride salts, FIG. 1A
Description: The compounds identified as Cpds 003, 004, and 005 (from Table E4, as their dihydrochloride salts) were tested for the ability to block intestinal phosphate uptake in rats. Rats were orally challenged with dosing solutions composed of 5 ml/kg (˜1.3 ml) of 8 mM Pi with ^33P and +/−10 mg/kg of test compound. Also included were dosing solutions further composed of either (i) 75 mM glucose+4 mM Ca or (ii) 4 mM Ca.

[2] = molecular target: T1, Rat NHE3 (Rattus norvegicus, UniProt P26433); experiment: Cell-based NHE3 activity under prompt conditions (OK cells, BCECF pH recovery), rat NHE3; conditions: for Rat NHE3 pIC50 Prompt: Table E5, 001 free base, 002-005 dihydrochloride salt; for Prompt Rat NHE3 pIC50: prompt conditions
T1 construct: expressed in transfected cells; host or cells: Opossum kidney (OK) cells (ATCC), electroporation
How it was run: (§1)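 OK cells electroporated with rat or human NHE3 were loaded with 5 μM BCECF-AM in NH4Cl-HEPES (pH 7.4) for 30 min at room temperature, then acid-loaded 10 min in Na+-free choline-HEPES.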

[3] = tested on: absorption of sodium from the intestinal lumen; experiment: Fecal form score (FFS) 16 h after oral dose in rats; format: in vivo, rat; conditions: for Fecal Form Score average: oral gavage, 16 h post-dose, scale 1-5
How it was run: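 Eight-week-old Sprague-Dawley rats (n=6) dosed by oral gavage with compound or water vehicle between 4 and 5 PM, then housed in metabolic cages with food and water ad libitum. At 16 h, fecal form scored 1 (normal pellet) to 5 (liquid streams) by two observers; group mean reported.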

[4] = molecular target: T2, Human NHE3 (Homo sapiens, UniProt P48764); experiment: Cell-based NHE3 activity under persistent conditions (60 min incubation, washout), human NHE3; conditions: Table E5; dihydrochloride salt
T2 construct: expressed in transfected cells; host or cells: Opossum kidney (OK) cells (ATCC), electroporation
T2 sequence (P48764 26-834): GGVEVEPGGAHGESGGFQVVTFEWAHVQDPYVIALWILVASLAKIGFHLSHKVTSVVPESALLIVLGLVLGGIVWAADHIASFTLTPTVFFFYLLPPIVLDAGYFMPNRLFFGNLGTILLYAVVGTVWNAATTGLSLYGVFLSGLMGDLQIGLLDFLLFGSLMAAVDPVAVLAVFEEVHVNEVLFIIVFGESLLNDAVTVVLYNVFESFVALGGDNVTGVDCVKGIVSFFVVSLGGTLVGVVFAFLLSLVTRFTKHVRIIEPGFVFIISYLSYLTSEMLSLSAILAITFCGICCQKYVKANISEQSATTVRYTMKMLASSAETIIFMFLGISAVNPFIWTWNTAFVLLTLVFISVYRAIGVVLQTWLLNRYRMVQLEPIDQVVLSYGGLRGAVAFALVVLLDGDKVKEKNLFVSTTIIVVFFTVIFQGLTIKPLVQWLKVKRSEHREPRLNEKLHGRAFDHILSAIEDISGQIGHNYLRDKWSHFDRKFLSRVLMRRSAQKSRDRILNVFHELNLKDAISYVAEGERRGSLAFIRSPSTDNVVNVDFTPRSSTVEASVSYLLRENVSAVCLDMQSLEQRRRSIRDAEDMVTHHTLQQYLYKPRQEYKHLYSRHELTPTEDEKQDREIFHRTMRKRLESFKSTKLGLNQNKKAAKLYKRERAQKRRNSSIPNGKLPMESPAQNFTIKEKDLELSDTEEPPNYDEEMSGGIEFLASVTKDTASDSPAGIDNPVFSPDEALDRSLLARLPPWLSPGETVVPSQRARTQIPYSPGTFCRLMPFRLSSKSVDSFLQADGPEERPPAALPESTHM

[5] = molecular target: T2, Human NHE3; experiment: Cell-based NHE3 activity under prompt conditions (OK cells, BCECF pH recovery), human NHE3; conditions: for pIC50 Prompt: Table E6, NHE3 species not stated; for Prompt Human NHE3 pIC50: prompt conditions
How it was run: as §1

[6] = tested on: absorption of sodium from the intestinal lumen; experiment: Inhibition of intestinal sodium absorption: urinary sodium (uNa) 16 h after single oral dose in rats; format: in vivo, rat; conditions: for UNa (%): urinary Na excretion as % of vehicle; for Urine Na % of control: oral gavage, 16 h post-dose
How it was run: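 Eight-week-old Sprague-Dawley rats (n=6) given single oral gavage of compound or water vehicle in the late afternoon, then kept in metabolic cages with chow and water ad libitum. Urine collected over 16 h; sodium quantified by ion chromatography and expressed as % of vehicle mean, compared by one-way ANOVA with Dunnett's test.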

[7] = molecular target: T3, NHE-2 (Rattus norvegicus, UniProt P48763); conditions: * = from rat; read-out: IC50 or Ki NHE-2; cited from earlier work
T3 sequence (P48763 1-813): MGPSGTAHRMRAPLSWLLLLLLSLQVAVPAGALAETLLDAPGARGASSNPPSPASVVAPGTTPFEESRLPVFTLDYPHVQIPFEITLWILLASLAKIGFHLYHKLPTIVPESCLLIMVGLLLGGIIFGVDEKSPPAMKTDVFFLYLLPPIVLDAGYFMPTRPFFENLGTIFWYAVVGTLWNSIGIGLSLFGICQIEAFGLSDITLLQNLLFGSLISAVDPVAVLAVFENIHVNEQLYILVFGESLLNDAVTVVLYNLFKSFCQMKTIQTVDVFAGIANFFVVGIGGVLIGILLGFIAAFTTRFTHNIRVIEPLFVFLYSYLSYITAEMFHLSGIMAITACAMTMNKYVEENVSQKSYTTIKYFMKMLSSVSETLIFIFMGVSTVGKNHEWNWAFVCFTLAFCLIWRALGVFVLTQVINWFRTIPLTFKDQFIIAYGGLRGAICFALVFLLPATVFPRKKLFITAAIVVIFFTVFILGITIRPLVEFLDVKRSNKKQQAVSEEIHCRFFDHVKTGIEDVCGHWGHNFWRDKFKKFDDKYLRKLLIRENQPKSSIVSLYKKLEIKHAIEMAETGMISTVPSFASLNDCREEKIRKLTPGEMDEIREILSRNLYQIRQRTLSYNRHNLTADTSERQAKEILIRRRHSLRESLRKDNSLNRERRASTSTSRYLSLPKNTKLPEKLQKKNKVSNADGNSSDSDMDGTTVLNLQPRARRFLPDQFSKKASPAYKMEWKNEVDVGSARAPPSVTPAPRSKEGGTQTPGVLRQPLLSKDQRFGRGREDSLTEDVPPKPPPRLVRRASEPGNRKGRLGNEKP

[8] = molecular target: NHE-1 (Homo sapiens, UniProt P19634); experiment: NHE isoform inhibition, Table 2 adapted from Masereel et al.: NHE-1, species not marked; format: biochemical; conditions: from Table 2 values
Source text: Shown below are examples of various NHE binding small molecules and their selectivity across the NHE-1, -2 and -3 isoforms. (See, e.g., B. Masereel et al., An Overview of Inhibitors of Na+/H+ Exchanger, European J. of Med. Chem., 38, pp. 547-554 (2003), the entire contents of which is incorporated by reference here for all relevant and consistent purposes). […] It is thus possible to engineer NHE3 binding selectivity into a chemical series optimized for potency against another antiporter isoform; that is, the inhibitor classes exemplified in the art may be suitably modified for activity and selectivity against NHE3 (or alternatively NHE-2 and/or NHE-8), as well as being optionally modified to be rendered substantially impermeable or substantially systemically non-bioavailable.

[9] = tested on: phosphorus and calcium levels in the urine of rats; experiment: Urinary excretion of phosphate and calcium in rats (16 h overnight urine); format: in vivo, rat; conditions: rats, oral gavage, 16 h post-dose

T1 sequence (P26433 29-831): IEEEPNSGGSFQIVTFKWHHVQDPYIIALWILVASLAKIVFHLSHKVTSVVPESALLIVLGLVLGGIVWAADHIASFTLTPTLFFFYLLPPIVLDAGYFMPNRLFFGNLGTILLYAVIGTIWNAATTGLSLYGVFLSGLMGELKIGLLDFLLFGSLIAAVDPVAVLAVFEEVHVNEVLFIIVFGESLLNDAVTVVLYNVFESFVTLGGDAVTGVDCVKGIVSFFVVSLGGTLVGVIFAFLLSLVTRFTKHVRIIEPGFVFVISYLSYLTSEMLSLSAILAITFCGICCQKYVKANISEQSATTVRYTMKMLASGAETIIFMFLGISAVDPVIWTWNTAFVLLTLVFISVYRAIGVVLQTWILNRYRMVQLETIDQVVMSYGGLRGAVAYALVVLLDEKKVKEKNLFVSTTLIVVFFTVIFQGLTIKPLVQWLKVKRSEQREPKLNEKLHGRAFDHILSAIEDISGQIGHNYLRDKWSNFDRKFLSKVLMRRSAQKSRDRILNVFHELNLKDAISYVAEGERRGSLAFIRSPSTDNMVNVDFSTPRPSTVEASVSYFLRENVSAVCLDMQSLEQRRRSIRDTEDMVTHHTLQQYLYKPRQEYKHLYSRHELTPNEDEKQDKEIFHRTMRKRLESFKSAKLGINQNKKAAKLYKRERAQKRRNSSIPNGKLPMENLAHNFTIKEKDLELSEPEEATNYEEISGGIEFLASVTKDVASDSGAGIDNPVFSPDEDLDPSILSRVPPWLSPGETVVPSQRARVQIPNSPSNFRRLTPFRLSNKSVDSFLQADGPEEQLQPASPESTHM
Chain of NHE-1 (P19634 whole entry, species assumed, canonical isoform): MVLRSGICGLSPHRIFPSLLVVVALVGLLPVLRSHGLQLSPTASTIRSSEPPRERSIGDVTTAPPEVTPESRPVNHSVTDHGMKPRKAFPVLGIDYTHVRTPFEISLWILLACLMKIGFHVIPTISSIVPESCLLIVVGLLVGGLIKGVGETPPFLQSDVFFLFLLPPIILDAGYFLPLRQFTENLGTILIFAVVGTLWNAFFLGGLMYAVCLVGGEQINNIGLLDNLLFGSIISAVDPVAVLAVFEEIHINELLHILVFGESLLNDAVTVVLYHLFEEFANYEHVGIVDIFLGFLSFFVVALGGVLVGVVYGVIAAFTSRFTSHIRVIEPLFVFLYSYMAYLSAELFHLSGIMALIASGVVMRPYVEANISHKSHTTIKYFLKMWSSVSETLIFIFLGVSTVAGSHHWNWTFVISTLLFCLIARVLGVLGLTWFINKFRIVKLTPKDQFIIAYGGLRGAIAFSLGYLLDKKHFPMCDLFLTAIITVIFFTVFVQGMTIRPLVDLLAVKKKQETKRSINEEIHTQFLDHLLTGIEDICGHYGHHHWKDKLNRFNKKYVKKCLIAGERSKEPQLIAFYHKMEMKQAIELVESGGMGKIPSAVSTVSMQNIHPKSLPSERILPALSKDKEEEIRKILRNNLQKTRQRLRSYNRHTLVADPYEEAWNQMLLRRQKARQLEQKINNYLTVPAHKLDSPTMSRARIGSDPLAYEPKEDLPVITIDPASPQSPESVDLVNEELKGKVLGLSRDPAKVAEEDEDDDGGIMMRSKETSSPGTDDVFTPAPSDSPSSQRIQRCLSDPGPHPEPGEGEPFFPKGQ

## CN1Cc2c(Cl)cc(Cl)cc2[C@H](c2cccc(S(=O)(=O)NCCOCCOCCNC(=O)Nc3ccc(NC(=O)NCCOCCOCCNS(=O)(=O)c4cccc([C@@H]5CN(C)Cc6c(Cl)cc(Cl)cc65)c4)cc3)c2)C1 [Cpd 003]
[1]
  Pi uptake after 33P oral challenge: reducing Pi uptake
[1]; 4 mM Ca, FIG. 1C
  Pi uptake after 33P oral challenge in the presence of Ca: significantly reduced Pi uptake
[1]; 75 mM glucose + 4 mM Ca, FIG. 1B
  Pi uptake after 33P oral challenge in the presence of glucose/Ca: significantly reduced Pi uptake
[2]
  Rat NHE3 pIC50 Prompt: 8.6
[3]; in words
  effect on fecal form: change in fecal form
[4]
  Human NHE3 pIC50 Persistent: 8.1
[5]; Table E5, 001 free base, 002-005 dihydrochloride salt
  Human NHE3 pIC50 Prompt: 8
[5]
  pIC50 Prompt: 8
[6]; in words
  effect on urinary Na (UNa): significant reduction in UNa
[6]; single oral dose 1 mg/kg
  UNa (%): 22 @ 1 mg/kg %

## CN1Cc2c(Cl)cc(Cl)cc2[C@@H](c2cccc(S(=O)(=O)NCCOCCOCCNC(=O)NCCCCNC(=O)NCCOCCOCCNS(=O)(=O)c3cccc([C@@H]4CN(C)Cc5c(Cl)cc(Cl)cc54)c3)c2)C1 [Cpd 005]
[1]
  Pi uptake after 33P oral challenge: inactive
[2]
  Rat NHE3 pIC50 Prompt: <5.0
[5]; Table E5, 001 free base, 002-005 dihydrochloride salt, read-out: Human NHE3 pIC50 Prompt (converted)
  IC50: > 10 µM
[5]
  pIC50 Prompt: <5.0
[6]; single oral dose 10 mg/kg
  UNa (%): 90 @ 10 mg/kg %

## CCN(c1nc(N)c(C(=O)NC(=N)N)nc1Cl)C(C)C [EIPA, ethyl isopropyl amiloride]
[7]
  IC50: 80 nM

## C/C(=C\c1cccc(/C=C(\C)C(=O)NC(=N)N)c1)C(=O)N=C(N)N [S-2120]
[8]
  selectivity: more active against NHE-1 than NHE3: over 500 fold

## C/C(=C\c1cc(C)ccc1/C=C(\C)C(=O)NC(=N)N)C(=O)N=C(N)N [S-3226]
[8]
  selectivity: more active against NHE-1 than NHE3: selectivity is reversed

## CN(C)[C@H]1Cc2c(Cl)cc(Cl)cc2[C@@H]1Oc1ccc(S(=O)(=O)NCCOCCOCCNC(=O)CCC(C)(CCC(=O)NCCOCCOCCNS(=O)(=O)c2ccc(O[C@H]3c4cc(Cl)cc(Cl)c4C[C@@H]3N(C)C)cc2)NC(=O)CCC(=O)O)cc1 [compound 179]
[2]
  Prompt Rat NHE3 pIC50: 8.00
[3]; dose 3 mg/kg
  Fecal Form Score average: 1
[9]; dose 3 mg/kg
  Urine P % of control: 66%
[5]
  Prompt Human NHE3 pIC50: 7.77
[6]; dose 3 mg/kg
  Urine Na % of control: 40%

## CN1Cc2c(Cl)cc(Cl)cc2[C@H](c2cccc(S(=O)(=O)NCCOCCOCCNC(=O)NCCCCNC(=O)NCCOCCOCCNS(=O)(=O)c3cccc([C@@H]4CN(C)Cc5c(Cl)cc(Cl)cc54)c3)c2)C1 [compound 180]
[2]
  Prompt Rat NHE3 pIC50: 8.03
[3]; dose 0.03 mg/kg
  Fecal Form Score average: 1
[3]; dose 0.1 mg/kg
  Fecal Form Score average: 1
[3]; dose 0.3 mg/kg
  Fecal Form Score average: 3
[3]; dose 1 mg/kg
  Fecal Form Score average: 3
[3]; dose 3 mg/kg
  Fecal Form Score average: 4
[9]; dose 0.03 mg/kg
  Urine P % of control: 80%
[9]; dose 0.1 mg/kg
  Urine P % of control: 82%
[9]; dose 0.3 mg/kg
  Urine P % of control: 75%
[9]; dose 1 mg/kg
  Urine P % of control: 69%
[9]; dose 3 mg/kg
  Urine P % of control: 38%
[5]
  Prompt Human NHE3 pIC50: 8.30
[6]; dose 0.03 mg/kg
  Urine Na % of control: 67%
[6]; dose 0.1 mg/kg
  Urine Na % of control: 45%
[6]; dose 0.3 mg/kg
  Urine Na % of control: 33%
[6]; dose 1 mg/kg
  Urine Na % of control: 15%
[6]; dose 3 mg/kg
  Urine Na % of control: 53%
